Assay results reported in patent publication US4434290A, “Pyrido (4,3-B) carbazoles substituted in the 1 position by a polyamine chain” (priority 1978, dated 1984).

Key:
[1] = test system: cells of viro-induced leukemia of Friend; test: In vitro cytotoxic study on cells of the Friend leukemia of the mouse (Table XV); type: cell-based; details: for IC50 / IC100: Mus musculus, 24 h; for IC50: read-out: LD 50 (50% lethal dose); for IC100: read-out: LD 100 (100% lethal dose); for LD 50 HUM / LD 50 product: ratio to reference HUM
Method: "In vitro" cytotoxic study of the compounds of the invention on the cells of viro-induced leukemia of Friend in the mouse [J. Exp. Med. 1957, 105, p. 307-318].
The cells were grown in suspension in the RPMI 1640 medium [catalogue of GIBCO Bio-Cult-Ltd, Washington Road Sandyford Industrial Estate Paisley PA3 4EP Renfrewshire Scotland] supplement with 20% of embryonary calf serum, with penicillin and with streptopycin. The duplication time of the culture was about 11 hours. The growth factor is equal to 1 or very close to 1 (all the cells multiplying).
The cultures were seeded at times t=0 at the concentration of 2×10^5 cells per ml in Falcon dishes containing 4 ml of medium. 24 hours later, the product to be tested (in solution, in acetic water) was added, at the moment when the cells were in the exponential growth phase. 24 hours after the addition of the product, the cells were counted and the percentage of living cells determined by an exclusion test with trypan blue.

C13/8 cells = test: In vitro cytotoxic study on hamster cells, complete inhibition of growth, C13/8 (Table XVI); type: cell-based; details: for IC (100 (complete growth inhibition, minimal)): Mesocricetus auratus, read-out: Minimal dose leading to a complete inhibition of the growth
Excerpt: (§1) Cytotoxic "in vitro" study on hamster cells on leukemia L1210 cells of the serie.
In particular, the line BHK 21 of hamster cells and a clone derived from this line were used, converted by the virus of the hamster sarcoma (clone HS5).
After detachment by trypsin, the cells were placed under culture in plastic Petri dishes of 35 mm diameter at the concentration of 2.10^5 cells/dish, in a "Eagle" culture medium supplemented with "Bactotryptophosphate Broth Difco" and with 10% of calf serum [M. STOKER and I. MAC-PHERSON Virology, 14, 1961, 359].
(§2) After 5 hours, the cells were attached to a plastic support and the products to be tested whose solutions had been formed in water or in DMSO (dimethylsulphoxide) if the product was little soluble in water, was added. In the latter case a control was carried out with the same final concentration of DMSO in the culture medium.
(§3) The state of the cells was examined 24, 48 and 72 hours later.

HS5 cells = test: In vitro cytotoxic study on hamster cells converted by the virus of the hamster sarcoma, clone HS5 (Table XVI); type: cell-based; details: for IC (100 (complete growth inhibition, minimal)): Mesocricetus auratus, read-out: Minimal dose leading to a complete inhibition of the growth
Method: Cytotoxic "in vitro" study on hamster cells on leukemia L1210 cells of the serie. In particular, the line BHK 21 of hamster cells and a clone derived from this line were used, converted by the virus of the hamster sarcoma (clone HS5). […] STOKER and […] Virology, 14, 1961, 359]. After 5 hours, the cells were attached to a plastic support and the products to be tested whose solutions had been formed in water or in DMSO (dimethylsulphoxide) if the product was little soluble in water, was added. In the latter case a control was carried out with the same final concentration of DMSO in the culture medium. The state of the cells was examined 24, 48 and 72 hours later.

leukemia L1210 = test: Leukemia L1210 in vivo, measurement of survival time (Table XII); parameters: species or system B6 D2 Fl (C 57 Bl/6×DBA/2) Fl mice; MST: unit not given here; details: 10^5 cells, i.p.
Method: The following pharmacological trials relate to the effects of the compounds of the invention on leukemia L1210 in vivo.
G. Proc. Nat. Acad. Sci. 1972, 69, 1042-1047 and Schepartz S., Screening 1971, Cancer Chemother. Part 3; Vol. 2, p. 3].
The properties were determined by the curative action inoculated experimental leukemia L1210. This leukemia was maintained on B6 D2 Fl (C 57 Bl/6×DBA/2) Fl mice in the proportion of 6 or 10 mice per experimental batch. The compounds to be tested were injected by the intraperitoneal route one or several days after inoculation of the cells (1 injection only). […] The death interval was determined, the first figure of the Table indicating the date of the first mouse death and the second the date of the last mouse death. The mean survival time was also measured (MST). A characteristic value is the percentage of increased life span (ILS %). This value (Cancer. Res. 1971, 31, 1883-1887) is the ratio: [formula] where S^t =survival of treated animals and
S^c =survival of control animals.

L1210 cells = test: In vitro cytotoxic study on leukemia L1210 cells, complete inhibition of growth (Table XVI); type: cell-based; details: for IC (100 (complete growth inhibition, minimal)): Mus musculus, read-out: Minimal dose leading to a complete inhibition of the growth
Method: as §1, §2, §3
In the case of the L1210 cells, the tests were carried out in a medium gelled with agarose, the L1210 cells growing in suspension.

cell cultures = test: Cytotoxicity in pharmacological tests (general statements); type: cell-based
[2] = L1210, medium gelled with agarose

Compound	IC50 [1] [nM]	IC100 [1] [µM]	LD 50 HUM / LD 50 product [1]	IC (100 (complete growth inhibition, minimal)) (C13/8 cells) [µM]	IC (100 (complete growth inhibition, minimal)) (HS5 cells) [µM]	also measured
Cc1c2cc[n+](C)cc2c(C)c2c1[nH]c1ccc(O)cc12 [HUM, 2-methyl-9-hydroxy ellipticinium acetate, reference compound]	300	0.8				
COc1ccc2[nH]c3c(C)c4ccnc(NCCN(C)C)c4cc3c2c1 [Compound 16]	800	3	0.4	1	2	
COc1ccc2[nH]c3c(C)c4ccnc(NCCCN(C)C)c4cc3c2c1 [Compound 17]	1500	3	0.2	1	2	
COc1ccc2[nH]c3c(C)c4ccnc(NCCCN)c4cc3c2c1 [Compound 12]	250	0.7	1.5	2	2	
CCN(CC)CCCNc1nccc2c(C)c3[nH]c4ccc(OC)cc4c3cc12 [Compound 18]	500	1.5	0.6	5	5	Death interval (mice) (leukemia L1210; 20 mg/kg, day +3): 13-19; ILS % (leukemia L1210; 20 mg/kg, day +3): 38.8%; MST (leukemia L1210; 20 mg/kg, day +3): 16.1
CCN(CC)CCCNc1nccc2c(C)c3[nH]c4ccncc4c3cc12 [BD 40, reference compound]						Minimal dose leading to a complete inhibition of the growth (C13/8 cells): 0.25 μ M; Minimal dose leading to a complete inhibition of the growth (HS5 cells): 0.25 μ M; Minimal dose leading to a complete inhibition of the growth (L1210 cells; [2]): 0.2 μ M
COc1ccc2[nH]c3c(C)c4ccnc(NCCCN(C)C)c4c(C)c3c2c1 [Compound 26]	400	1	0.75			Death interval (mice) (leukemia L1210; 10 mg/kg, day +4): 12-16; ILS % (leukemia L1210; 10 mg/kg, day +4): 38.5%; MST (leukemia L1210; 10 mg/kg, day +4): 14.4; Death interval (mice) (leukemia L1210; 20 mg/kg, day +4): 16-19; ILS % (leukemia L1210; 20 mg/kg, day +4): 67.3%; MST (leukemia L1210; 20 mg/kg, day +4): 17.4
CCN(CC)CCCNc1nccc2c(C)c3[nH]c4ccc(OCc5ccccc5)cc4c3cc12 [Compound 24]	3000	10	0.1			IC (100 (complete growth inhibition, minimal)) (L1210 cells; [2]): 0.4 µM; activity compared with the reference BD40 (L1210 cells; summary of Table XVI): almost as active as the reference dipyrido-indole (BD40)
COc1ccc2[nH]c3c(C)c4ccnc(NCCCN)c4c(C)c3c2c1 [Compound 25]	120	0.3	3			Death interval (mice) (leukemia L1210; 10 mg/kg, day +4): 12-13; ILS % (leukemia L1210; 10 mg/kg, day +4): 21.1%; MST (leukemia L1210; 10 mg/kg, day +4): 12.6; Death interval (mice) (leukemia L1210; 20 mg/kg, day +4): 8-12; MST (leukemia L1210; 20 mg/kg, day +4): 9.6; activity compared with HUM / known derivatives [1]: more active than the derivatives already known; IC (100 (complete growth inhibition, minimal)) (L1210 cells; [2]): 0.9 µM
COc1ccc2[nH]c3c(C)c4ccnc(NCCCCN)c4cc3c2c1 [Compound 13]	7000	15	0.04	2	2	
CCN(CC)CCCNc1nccc2c(C)c3[nH]c4ccc(O)cc4c3cc12 [Compound 29]	17	0.04	18			Death interval (mice) (leukemia L1210; 10 mg/kg, day +4): 15-17; ILS % (leukemia L1210; 10 mg/kg, day +4): 55.8%; MST (leukemia L1210; 10 mg/kg, day +4): 16.2; Death interval (mice) (leukemia L1210; 20 mg/kg, day +4): 10-15; ILS % (leukemia L1210; 20 mg/kg, day +4): 19.2%; MST (leukemia L1210; 20 mg/kg, day +4): 12.4; activity compared with HUM / known derivatives [1]: more active than the derivatives already known
Cc1c2ccnc(NCCCN)c2cc2c1[nH]c1ccc(OCc3ccccc3)cc12 [Compound 23]	300	0.9	1			
CCN(CC)CCCC(C)Nc1nccc2c(C)c3[nH]c4ccc(OC)cc4c3cc12 (centres unmarked) [Compound 19]	1300	3	0.2			Death interval (mice) (leukemia L1210; 10 mg/kg, day +4): 11-16; ILS % (leukemia L1210; 10 mg/kg, day +4): 25%; MST (leukemia L1210; 10 mg/kg, day +4): 13; Death interval (mice) (leukemia L1210; 20 mg/kg, day +4): 11-16; ILS % (leukemia L1210; 20 mg/kg, day +4): 19.2%; MST (leukemia L1210; 20 mg/kg, day +4): 12.4
COc1ccc2[nH]c3c(C)c4ccnc(N5CCCCC5)c4cc3c2c1 [Compound 21]	35000	100	1.1	> 5	> 5	cytotoxic activity (cell cultures): not cytotoxic
COc1ccc2[nH]c3c(C)c4ccnc(NCCCCCCN)c4cc3c2c1 [Compound 15]	800	2	0.4	2	2	
COc1ccc2[nH]c3c(C)c4ccnc(NCCN)c4cc3c2c1 [Compound 11]	100	0.25	3	1	1	activity compared with HUM / known derivatives [1]: more active than the derivatives already known
COc1ccc2[nH]c3c(C)c4ccnc(NCCCCCN)c4cc3c2c1 [Compound 14]	500	1.5	0.6	2	2	
